Converted amounts (≈) assume the structure as drawn. Numbered stars: 1 amine (or outer) side, 2 acyl side, 3 side chain; on linkers, the order of the positions; unused ones are H or OH. Bridge positions count the residues as written; N and C are the ends. Square brackets hold non-standard residues; d marks the D form. Peptide text beside a SMILES is read from it. ξ: configuration not given here. ξαMeNle(6-ylidene) = CC(CCCC=[*:3])(N[*:1])C(=O)[*:2]; R5 = C=CCCC[C@@](C)(N)C(=O)O; S5 = C=CCCC[C@](C)(N)C(=O)O
How the values were obtained:
Staphylococcus aureus = assay: Antibacterial activity against Staphylococcus aureus ATCC 25923 assessed as inhibition of bacterial growth measured after 24 hrs by broth microdilution method; assay type: functional
Klebsiella pneumoniae = assay: Antibacterial activity against Klebsiella pneumoniae ATCC 13883 assessed as inhibition of bacterial growth measured after 24 hrs by broth microdilution method; assay type: functional
[1] = Hemolytic activity in human RBC assessed as hemolysis incubated for 1 hr by microplate reader; assay type: toxicity, cell-based, Erythrocyte; conditions: erythrocyte, 1 h
Pseudomonas aeruginosa = assay: Antibacterial activity against Pseudomonas aeruginosa PAO1 assessed as inhibition of bacterial growth measured after 24 hrs by broth microdilution method; assay type: functional

| MIC (Staphylococcus aureus) [µM] | MIC (Klebsiella pneumoniae) [µM] | MIC (Pseudomonas aeruginosa) [µM] | SMILES | Activity [1] |
| --- | --- | --- | --- | --- |
| 3.13 (≈ 12.7 µg/mL) | 12.5 (≈ 50.7 µg/mL) | 12.5 (≈ 50.7 µg/mL) | CC[C@H](C)[C@H](NC(=O)CNC(=O)[C@H](CC(=O)O)NC(=O)[C@H](CCCNC(=N)N)NC(=O)[C@@H](NC(=O)[C@H](CC(N)=O)NC(=O)[C@H](CCC(N)=O)NC(=O)CNC(=O)[C@@H](NC(=O)[C@H](CCCCN)NC(=O)[C@H](CCC(=O)O)NC(=O)[C@@H](NC(=O)[C@H](CCCCN)NC(=O)[C@H](CCCCN)NC(=O)[C@H](Cc1ccccc1)NC(=O)[C@H](CC(C)C)NC(=O)[C@H](CCCCN)NC(=O)[C@H](Cc1c[nH]c2ccccc12)NC(=O)[C@H](CCCCN)NC(C)=O)[C@@H](C)CC)C(C)C)[C@@H](C)CC)C(=O)N[C@H](C(=O)N[C@@H](CCCCN)C(=O)N[C@@H](C)C(=O)NCC(=O)N1CCC[C@H]1C(=O)N[C@@H](C)C(=O)N[C@H](C(=O)N[C@@H](C)C(=O)N[C@H](C(=O)N[C@H](C(=O)NCC(=O)N[C@@]1(C)CCC/C=C\CCC[C@@](C)(C(=O)N[C@@H](C)C(=O)N[C@@H](CCCCN)C(N)=O)NC(=O)[C@H](CCC(N)=O)NC(=O)[C@H]([C@@H](C)O)NC(=O)[C@H](C)NC1=O)C(C)C)C(C)C)C(C)C)[C@@H](C)CC (Ac-KWKLFKKIEKVGQNIRDGIIKAGPAVAVVG[S5]ATQ[S5]AK-NH2; staple (Z) 31-35) | Non-toxic |
| 3.13 (≈ 12.9 µg/mL) | 6.25 (≈ 25.7 µg/mL) | 6.25 (≈ 25.7 µg/mL) | CC[C@H](C)[C@H](NC(=O)CNC(=O)[C@H](CC(=O)O)NC(=O)[C@H](CCCNC(=N)N)NC(=O)[C@@H](NC(=O)[C@H](CC(N)=O)NC(=O)[C@H](CCC(N)=O)NC(=O)CNC(=O)[C@@H](NC(=O)[C@H](CCCCN)NC(=O)[C@H](CCC(=O)O)NC(=O)[C@@H](NC(=O)[C@H](CCCCN)NC(=O)[C@H](CCCCN)NC(=O)[C@H](Cc1ccccc1)NC(=O)[C@H](CC(C)C)NC(=O)[C@H](CCCCN)NC(=O)[C@H](Cc1c[nH]c2ccccc12)NC(=O)[C@H](CCCCN)NC(C)=O)[C@@H](C)CC)C(C)C)[C@@H](C)CC)C(=O)N[C@H](C(=O)N[C@@H](CCCCN)C(=O)N[C@@H](C)C(=O)NCC(=O)N1CCC[C@H]1C(=O)N[C@@H](C)C(=O)N[C@H](C(=O)N[C@@H](C)C(=O)N[C@H](C(=O)N[C@H](C(=O)NC1(C)CCC/C=C\CCC[C@@](C)(C(=O)N[C@H](C(=O)N[C@@H](C)C(=O)N[C@@H](CCCCN)C(N)=O)[C@@H](C)CC)NC(=O)[C@H]([C@@H](C)O)NC(=O)[C@H](C)NC(=O)[C@H](CCC(N)=O)NC1=O)C(C)C)C(C)C)C(C)C)[C@@H](C)CC (stereo not given in full) (Ac-KWKLFKKIEKVGQNIRDGIIKAGPAVAVV[ξαMeNle(6-ylidene)]QAT[S5]IAK-NH2; staple (Z) 30-34) | Non-toxic |
| 6.25 (≈ 25.3 µg/mL) | 25 (≈ 101 µg/mL) | > 100 | CC[C@H](C)[C@@H]1NC(=O)CNC(=O)[C@](C)(NC(=O)[C@H](CCCNC(=N)N)NC(=O)[C@@H](NC(=O)[C@H](CC(N)=O)NC(=O)[C@H](CCC(N)=O)NC(=O)CNC(=O)[C@@H](NC(=O)[C@H](CCCCN)NC(=O)[C@H](CCC(=O)O)NC(=O)[C@@H](NC(=O)[C@H](CCCCN)NC(=O)[C@H](CCCCN)NC(=O)[C@H](Cc2ccccc2)NC(=O)[C@H](CC(C)C)NC(=O)[C@H](CCCCN)NC(=O)[C@H](Cc2c[nH]c3ccccc23)NC(=O)[C@H](CCCCN)NC(C)=O)[C@@H](C)CC)C(C)C)[C@@H](C)CC)CCC/C=C\CCC[C@](C)(C(=O)N[C@@H](C)C(=O)NCC(=O)N2CCC[C@H]2C(=O)N[C@@H](C)C(=O)N[C@H](C(=O)N[C@@H](C)C(=O)N[C@H](C(=O)N[C@H](C(=O)NCC(=O)N[C@@H](CCC(N)=O)C(=O)N[C@@H](C)C(=O)N[C@H](C(=O)N[C@@H](CCC(N)=O)C(=O)N[C@H](C(=O)N[C@@H](C)C(=O)N[C@@H](CCCCN)C(N)=O)[C@@H](C)CC)[C@@H](C)O)C(C)C)C(C)C)C(C)C)NC(=O)[C@H]([C@@H](C)CC)NC1=O (Ac-KWKLFKKIEKVGQNIR[R5]GII[R5]AGPAVAVVGQATQIAK-NH2; staple (Z) 17-21) |  |
| 25 (≈ 102 µg/mL) | > 100 | > 100 | CC[C@H](C)[C@H](NC(=O)CNC(=O)[C@H](CC(=O)O)NC(=O)[C@]1(C)CCC/C=C\CCC[C@](C)(NC(=O)[C@@H](NC(=O)[C@H](CCCCN)NC(=O)[C@H](CCC(=O)O)NC(=O)[C@@H](NC(=O)[C@H](CCCCN)NC(=O)[C@H](CCCCN)NC(=O)[C@H](Cc2ccccc2)NC(=O)[C@H](CC(C)C)NC(=O)[C@H](CCCCN)NC(=O)[C@H](Cc2c[nH]c3ccccc23)NC(=O)[C@H](CCCCN)NC(C)=O)[C@@H](C)CC)C(C)C)C(=O)N[C@@H](CCC(N)=O)C(=O)N[C@@H](CC(N)=O)C(=O)N[C@@H]([C@@H](C)CC)C(=O)N1)C(=O)N[C@H](C(=O)N[C@@H](CCCCN)C(=O)N[C@@H](C)C(=O)NCC(=O)N1CCC[C@H]1C(=O)N[C@@H](C)C(=O)N[C@H](C(=O)N[C@@H](C)C(=O)N[C@H](C(=O)N[C@H](C(=O)NCC(=O)N[C@@H](CCC(N)=O)C(=O)N[C@@H](C)C(=O)N[C@H](C(=O)N[C@@H](CCC(N)=O)C(=O)N[C@H](C(=O)N[C@@H](C)C(=O)N[C@@H](CCCCN)C(N)=O)[C@@H](C)CC)[C@@H](C)O)C(C)C)C(C)C)C(C)C)[C@@H](C)CC (Ac-KWKLFKKIEKV[S5]QNI[S5]DGIIKAGPAVAVVGQATQIAK-NH2; staple (Z) 12-16) |  |
| > 100 | 12.5 (≈ 50.9 µg/mL) | 100 (≈ 407 µg/mL) | CC[C@H](C)[C@H](NC(=O)[C@H](CCC(N)=O)NC(=O)[C@@H](NC(=O)[C@H](C)NC(=O)[C@H](CCC(N)=O)NC(=O)CNC(=O)[C@@H](NC(=O)[C@@H](NC(=O)[C@H](C)NC(=O)[C@@H](NC(=O)[C@H](C)NC(=O)[C@@H]1CCCN1C(=O)CNC(=O)[C@H](C)NC(=O)[C@H](CCCCN)NC(=O)[C@@H](NC(=O)[C@]1(C)CCC/C=C\CCC[C@](C)(NC(=O)[C@H](CC(N)=O)NC(=O)[C@H](CCC(N)=O)NC(=O)CNC(=O)[C@@H](NC(=O)[C@H](CCCCN)NC(=O)[C@H](CCC(=O)O)NC(=O)[C@@H](NC(=O)[C@H](CCCCN)NC(=O)[C@H](CCCCN)NC(=O)[C@H](Cc2ccccc2)NC(=O)[C@H](CC(C)C)NC(=O)[C@H](CCCCN)NC(=O)[C@H](Cc2c[nH]c3ccccc23)NC(=O)[C@H](CCCCN)NC(C)=O)[C@@H](C)CC)C(C)C)C(=O)N[C@@H](CCCNC(=N)N)C(=O)N[C@@H](CC(=O)O)C(=O)NCC(=O)N1)[C@@H](C)CC)C(C)C)C(C)C)C(C)C)[C@@H](C)O)C(=O)N[C@@H](C)C(=O)N[C@@H](CCCCN)C(N)=O (Ac-KWKLFKKIEKVGQN[S5]RDG[S5]IKAGPAVAVVGQATQIAK-NH2; staple (Z) 15-19) |  |
| > 100 | > 100 | > 100 | CC[C@H](C)[C@H](NC(=O)CNC(=O)[C@H](CC(=O)O)NC(=O)[C@H](CCCNC(=N)N)NC(=O)[C@@H](NC(=O)[C@H](CC(N)=O)NC(=O)[C@H](CCC(N)=O)NC(=O)CNC(=O)[C@@H](NC(=O)[C@]1(C)CCC/C=C\CCC[C@](C)(NC(=O)[C@H](Cc2ccccc2)NC(=O)[C@H](CC(C)C)NC(=O)[C@H](CCCCN)NC(=O)[C@H](Cc2c[nH]c3ccccc23)NC(=O)[C@H](CCCCN)NC(C)=O)C(=O)N[C@@H](CCCCN)C(=O)N[C@@H]([C@@H](C)CC)C(=O)N[C@@H](CCC(=O)O)C(=O)N1)C(C)C)[C@@H](C)CC)C(=O)N[C@H](C(=O)N[C@@H](CCCCN)C(=O)N[C@@H](C)C(=O)NCC(=O)N1CCC[C@H]1C(=O)N[C@@H](C)C(=O)N[C@H](C(=O)N[C@@H](C)C(=O)N[C@H](C(=O)N[C@H](C(=O)NCC(=O)N[C@@H](CCC(N)=O)C(=O)N[C@@H](C)C(=O)N[C@H](C(=O)N[C@@H](CCC(N)=O)C(=O)N[C@H](C(=O)N[C@@H](C)C(=O)N[C@@H](CCCCN)C(N)=O)[C@@H](C)CC)[C@@H](C)O)C(C)C)C(C)C)C(C)C)[C@@H](C)CC (Ac-KWKLF[S5]KIE[S5]VGQNIRDGIIKAGPAVAVVGQATQIAK-NH2; staple (Z) 6-10) |  |

From ChEMBL document CHEMBL6115030, “Systematic All-Hydrocarbon Stapling Analysis for Cecropin A Generates a Potent and Stable Antimicrobial Peptide” (J Med Chem, 2025)
